Results as given in patent publication US20090181986A1, “SUBSTITUTED HETEROCYCLIC COMPOUNDS” (priority 2007, published 2009).

Tests used:
[1] = target: T1, human cardiac L-type calcium channels (hCav1.2, coexpressed with the beta 2 subunit) (Homo sapiens, UniProt Q13936); test: L-type calcium channel patch clamp screening assay (ICaL, HEK293); assay type: cell-based; details: hCav1.2 in HEK293, percentage of current inhibited at steady state; for ICaL Patch Clamp Assay 1 μM % blk: 1 μM test compound; for ICaL Patch Clamp Assay 10 μM % blk: 10 μM test compound
T1 construct: expressed in transfected cells
Experimental: Compounds are screened to test for block of human cardiac L-type calcium channels (hCav1.2, encoded by the human CACNA1C gene and coexpressed with the beta 2 subunit, encoded by the human CACNB2 gene) expressed in an HEK293 cell line. Stable transfectants were selected using antibiotic resistance genes incorporated into the expression plasmids and selection pressure is maintained with selection antibiotics added to the culture medium. Cells are cultured using standard tissue culture methods for HEK293 cells.
Cells are harvested for addition to a PatchXpress automated patch clamp system. The external solution contains: 137 mM NaCl; 4 mM KCl; 1.8 mM CaCl2; 1 mM MgCl2; […]; 10 mM Glucose (pH adjusted to 7.4 with NaOH). The internal solution contains: 130 mM Cs Aspartate; 5 mM MgCl2; 5 mM EGTA; 4 mM ATP; 0.1 mM GTP; 10 mM HEPES (pH adjusted to 7.2 with N-methyl-D-glucamine).
Onset of block and steady state block of hCav1.2 channels are monitored using a stimulus voltage pattern consisting of a depolarizing test pulse (duration, 200 ms; amplitude, 10 mV) at 10s intervals from a −80 mV holding potential (FIG. 5). Test compound concentrations (1 μM and 10 μM) are applied cumulatively in ascending order without washout between applications. Peak current is measured during the step to 10 mV. A saturating concentration of nifedipine (10 μM) is added at the end of each experiment to completely block hCav1.2 current and verify sensitivity to channel blockade. Leakage current is measured after nifedipine addition and digitally subtracted from the total membrane current record. Each compound is applied to naive cells and each concentration is applied four times for a total exposure duration of five (5) minutes per concentration.
Test compound stock solutions are prepared in dimethyl sulfoxide (DMSO) and stored frozen. Test compound concentrations are prepared fresh daily by diluting stock solutions into the external HEPES-buffered physiological saline solution described above. […] Each test compound formulation is sonicated (Model 2510/5510, Branson Ultrasonics, Danbury, Conn.), at ambient room temperature for at least 20 minutes to facilitate dissolution. In preparation for the recording session, a glass-lined 96-well compound plate is loaded with the appropriate amounts of test and control solutions, and placed in the plate well of PatchXpress® (Model 7000A, MDS Analytical Technologies, Sunnyvale, Calif.).
Data acquisition and analyses are performed using conventional software. Steady state is defined by the limiting constant rate of change with time (linear time dependence). The steady state before and after test compound application is used to calculate the percentage of current inhibited at each concentration.

[2] = target: hERG potassium channel (Homo sapiens, UniProt Q12809); test: hERG screening assay (PatchXpress patch clamp, CHO cells)
hERG potassium channel, sequence (Q12809 whole entry): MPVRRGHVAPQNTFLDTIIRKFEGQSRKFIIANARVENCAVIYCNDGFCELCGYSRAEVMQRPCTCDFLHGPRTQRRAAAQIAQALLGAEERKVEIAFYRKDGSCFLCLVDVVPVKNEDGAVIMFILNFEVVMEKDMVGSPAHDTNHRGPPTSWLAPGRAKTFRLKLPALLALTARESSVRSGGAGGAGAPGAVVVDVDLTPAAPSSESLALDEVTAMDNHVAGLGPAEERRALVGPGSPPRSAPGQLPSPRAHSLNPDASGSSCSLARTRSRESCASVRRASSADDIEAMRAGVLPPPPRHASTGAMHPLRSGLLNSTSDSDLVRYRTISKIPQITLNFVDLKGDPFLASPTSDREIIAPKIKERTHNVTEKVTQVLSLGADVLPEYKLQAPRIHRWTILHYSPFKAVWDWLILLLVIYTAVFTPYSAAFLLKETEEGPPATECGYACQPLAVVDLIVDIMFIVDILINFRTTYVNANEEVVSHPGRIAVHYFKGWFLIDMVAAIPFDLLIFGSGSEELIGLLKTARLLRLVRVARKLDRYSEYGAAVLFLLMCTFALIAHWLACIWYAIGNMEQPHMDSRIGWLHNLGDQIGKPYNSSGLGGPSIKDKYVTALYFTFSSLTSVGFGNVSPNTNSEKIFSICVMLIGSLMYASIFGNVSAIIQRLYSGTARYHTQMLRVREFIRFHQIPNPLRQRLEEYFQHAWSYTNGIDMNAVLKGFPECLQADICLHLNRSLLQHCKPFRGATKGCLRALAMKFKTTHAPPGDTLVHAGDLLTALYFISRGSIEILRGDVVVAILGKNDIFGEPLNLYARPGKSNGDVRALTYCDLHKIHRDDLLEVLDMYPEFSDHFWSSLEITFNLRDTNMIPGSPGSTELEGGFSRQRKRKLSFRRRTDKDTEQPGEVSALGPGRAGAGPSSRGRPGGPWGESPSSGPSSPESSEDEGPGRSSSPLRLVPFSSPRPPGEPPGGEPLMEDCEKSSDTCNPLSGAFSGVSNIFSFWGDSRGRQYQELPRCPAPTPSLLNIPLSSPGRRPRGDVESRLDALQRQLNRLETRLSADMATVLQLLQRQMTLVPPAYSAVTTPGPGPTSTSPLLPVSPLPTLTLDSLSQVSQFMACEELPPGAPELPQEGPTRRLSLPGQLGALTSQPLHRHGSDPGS
Experimental: Compounds were screened to test their activity in blocking the hERG potassium channel. The hERG channel is heterologously expressed in a CHO (Chinese Hamster Ovary) cell line. Cells are maintained with standard tissue culture procedures and stable channel expression is maintained with 500 μg/ml G418 in the culture medium. Cells are harvested for testing on the PatchXpress automated patch clamp with Acctumax (Innovative Cell Technologies, San Diego, Calif.) to isolate single cells.
The following solutions are used for electrophysiological recordings. The external solution contains: 2 mM CaCl2; 2 mM MgCl2; 4 mM KCl; 150 mM NaCl; 10 mM Glucose; 10 mM HEPES (pH 7.4 with 1M NaOH, osmolarity).
hERG channels are activated when the voltage is stepped to +20 mV from the −80 mV holding potential (see FIG. 3). During a 5 second step at +20 mV, the channels activate and then largely inactivate, so the currents are relatively small. Upon returning to −50 mV from +20 mV, hERG currents transiently become much larger as inactivation is rapidly removed and then the channel closes. The first step to −50 mV for 300 ms is used as a baseline for measuring the peak amplitude during the step to −50 mV after channel activation. The peak current at −50 mV is measured both under control conditions and after addition of compound.
All compounds are prepared as 10 mM DMSO stocks in glass vials. Stock solutions are mixed by vigorous vortexing and sonication for about 2 minutes at room temperature. For testing, compounds are diluted in glass vials using an intermediate dilution step in pure DMSO and then further diluted to working concentrations in external solution. Dilutions are prepared no longer than 20 minutes before use.
After achieving the whole-cell configuration, cells are monitored for 90 seconds to assess stability and washed with external solution for 66 seconds. The voltage protocol described above is then applied to the cells every 12 seconds and throughout the whole procedure. Only cells with stable recording parameters and meeting specified health criteria are allowed to enter the compound addition procedure.
External solution containing 0.1% DMSO (vehicle) is applied to the cells first to establish the control peak current amplitude. After allowing the current to stabilize for 3 to 5 minutes, 1 μM and then 10 μM test compounds are applied. Each compound concentration is added 4 times and cells are kept in test solution until the effect of the compound reaches steady state or for a maximum of 12 minutes. […] Washout in the external solution compartment is performed until the recovery of the current reaches steady state. Data are analyzed using DataXpress, Clampfit (Molecular Devices, Inc., Sunnyvale) and Origin 7 (Originlab Corp.)

T1 sequence (Q13936 whole entry): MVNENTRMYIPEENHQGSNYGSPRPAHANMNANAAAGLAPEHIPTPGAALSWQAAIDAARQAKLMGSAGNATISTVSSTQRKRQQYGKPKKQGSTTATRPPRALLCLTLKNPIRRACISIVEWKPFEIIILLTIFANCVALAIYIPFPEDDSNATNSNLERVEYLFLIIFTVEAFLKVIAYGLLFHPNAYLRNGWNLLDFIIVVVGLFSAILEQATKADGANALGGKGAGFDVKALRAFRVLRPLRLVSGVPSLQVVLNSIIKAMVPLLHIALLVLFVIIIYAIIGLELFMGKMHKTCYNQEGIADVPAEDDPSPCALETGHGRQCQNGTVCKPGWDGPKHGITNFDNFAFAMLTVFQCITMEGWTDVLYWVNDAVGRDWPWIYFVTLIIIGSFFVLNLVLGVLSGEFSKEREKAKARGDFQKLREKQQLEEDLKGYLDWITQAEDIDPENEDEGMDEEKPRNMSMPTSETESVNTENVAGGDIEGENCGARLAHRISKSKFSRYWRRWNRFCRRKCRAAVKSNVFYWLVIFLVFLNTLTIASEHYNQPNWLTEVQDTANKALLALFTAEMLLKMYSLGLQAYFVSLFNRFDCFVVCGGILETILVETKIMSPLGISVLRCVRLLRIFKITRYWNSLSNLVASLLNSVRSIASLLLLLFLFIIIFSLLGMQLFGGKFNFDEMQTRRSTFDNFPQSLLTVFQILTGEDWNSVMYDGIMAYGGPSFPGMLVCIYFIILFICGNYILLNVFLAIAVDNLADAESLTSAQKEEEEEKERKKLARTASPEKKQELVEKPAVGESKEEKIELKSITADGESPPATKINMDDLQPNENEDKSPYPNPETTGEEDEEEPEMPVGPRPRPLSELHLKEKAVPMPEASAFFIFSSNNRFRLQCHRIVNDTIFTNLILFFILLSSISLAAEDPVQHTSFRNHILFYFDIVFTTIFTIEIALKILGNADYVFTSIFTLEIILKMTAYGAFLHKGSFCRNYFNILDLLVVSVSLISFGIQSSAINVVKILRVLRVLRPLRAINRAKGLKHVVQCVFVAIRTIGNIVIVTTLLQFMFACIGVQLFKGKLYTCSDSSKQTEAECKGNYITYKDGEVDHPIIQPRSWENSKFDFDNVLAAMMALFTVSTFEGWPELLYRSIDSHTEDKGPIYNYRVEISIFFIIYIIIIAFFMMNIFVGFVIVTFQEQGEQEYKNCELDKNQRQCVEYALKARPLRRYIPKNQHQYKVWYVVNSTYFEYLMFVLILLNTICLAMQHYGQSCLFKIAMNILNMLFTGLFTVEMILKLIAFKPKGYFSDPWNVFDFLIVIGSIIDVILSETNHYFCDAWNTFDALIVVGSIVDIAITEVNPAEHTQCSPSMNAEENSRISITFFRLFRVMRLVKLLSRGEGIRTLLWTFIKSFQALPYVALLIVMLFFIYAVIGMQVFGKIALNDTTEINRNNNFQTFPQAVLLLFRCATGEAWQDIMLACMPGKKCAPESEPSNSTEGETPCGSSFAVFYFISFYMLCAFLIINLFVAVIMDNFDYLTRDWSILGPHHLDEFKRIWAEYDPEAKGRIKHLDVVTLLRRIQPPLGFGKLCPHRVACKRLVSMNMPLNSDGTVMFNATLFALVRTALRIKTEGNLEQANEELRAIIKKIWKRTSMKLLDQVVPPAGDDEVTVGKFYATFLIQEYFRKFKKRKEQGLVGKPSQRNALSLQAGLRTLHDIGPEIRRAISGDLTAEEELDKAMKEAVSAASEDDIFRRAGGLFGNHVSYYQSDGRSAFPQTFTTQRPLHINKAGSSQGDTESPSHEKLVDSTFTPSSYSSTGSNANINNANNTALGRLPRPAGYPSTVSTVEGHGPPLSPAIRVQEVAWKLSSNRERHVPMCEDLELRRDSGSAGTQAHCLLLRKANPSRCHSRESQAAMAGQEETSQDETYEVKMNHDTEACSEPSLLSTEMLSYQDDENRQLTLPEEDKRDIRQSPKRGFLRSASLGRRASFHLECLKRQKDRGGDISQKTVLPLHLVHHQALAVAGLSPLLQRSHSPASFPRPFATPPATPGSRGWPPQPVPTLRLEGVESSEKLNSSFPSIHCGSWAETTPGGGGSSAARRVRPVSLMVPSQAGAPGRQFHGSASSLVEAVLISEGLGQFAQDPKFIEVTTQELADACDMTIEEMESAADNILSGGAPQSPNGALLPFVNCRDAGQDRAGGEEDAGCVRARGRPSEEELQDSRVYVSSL
T1 sequence (Q08289 whole entry partner): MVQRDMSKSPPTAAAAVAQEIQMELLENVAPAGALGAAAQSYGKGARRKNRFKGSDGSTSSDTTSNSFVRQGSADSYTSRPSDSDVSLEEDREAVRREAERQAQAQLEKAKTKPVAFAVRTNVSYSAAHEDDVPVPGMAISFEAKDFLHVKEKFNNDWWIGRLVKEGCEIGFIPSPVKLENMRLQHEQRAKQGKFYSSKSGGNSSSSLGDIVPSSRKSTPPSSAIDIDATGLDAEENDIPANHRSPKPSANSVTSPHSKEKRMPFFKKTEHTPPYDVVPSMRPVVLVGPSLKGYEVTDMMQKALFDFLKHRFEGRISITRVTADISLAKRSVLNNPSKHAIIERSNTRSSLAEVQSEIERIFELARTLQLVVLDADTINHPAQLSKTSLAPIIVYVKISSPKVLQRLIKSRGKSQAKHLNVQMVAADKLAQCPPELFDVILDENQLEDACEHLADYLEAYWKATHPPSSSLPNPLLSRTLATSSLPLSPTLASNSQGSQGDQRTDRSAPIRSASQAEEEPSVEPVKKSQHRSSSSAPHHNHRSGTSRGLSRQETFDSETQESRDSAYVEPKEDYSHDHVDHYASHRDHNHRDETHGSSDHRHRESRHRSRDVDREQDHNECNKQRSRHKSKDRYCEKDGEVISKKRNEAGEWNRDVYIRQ

Row | Compound | ICaL Patch Clamp Assay 1 μM % blk [1] | ICaL Patch Clamp Assay 10 μM % blk [1] | hERG Patch Clamp hERG % blk (1 μM test cmpd) [2] | hERG Patch Clamp hERG % blk (10 μM test cmpd) [2]
1 | CC1=C(C(=O)OCc2ccccc2)C(c2ccc(N(C)C)cc2[N+](=O)[O-])n2nnnc2N1 (centres unmarked) [PT-409, benzyl 7-(4-(dimethylamino)-2-nitrophenyl)-5-methyl-4,7-dihydrotetrazolo[1,5-a]pyrimidine-6-carboxylate] | 2.7% | 19.9% | 27% | 78.5%
2 | CCOC(=O)C1=C(C)NC(C)=C(C(=O)OCC)C1c1ccccc1Br [PT-430, diethyl 4-(2-bromophenyl)-2,6-dimethyl-1,4-dihydropyridine-3,5-dicarboxylate] | 91.8% | 98.6% | 10% | 21.5%
